Reference: patent US20240415814A1, “PHARMACEUTICAL COMPOSITION COMPRISING 1-(3-CYANO-1-ISOPROPYL-INDOL-5-YL)PYRAZOLE-4-CARBOXYLIC ACID” (LG CHEM, LTD., priority 2021, published 2024)

Test system: serum uric acid
Assay: Phase 2 clinical trial (NCT03934099): serum uric acid concentration in gout patients
Assay type: in vivo, human
Details: for average maximum degree of reduction in serum uric acid: FIG. 3; for patients with serum uric acid concentration <6 mg/dL: gout patients, with colchicine 0.6 mg; for average serum uric acid concentration: within 2 weeks after starting administration
Description: A phase 2 clinical trial was conducted to analyze the dosage, TEAEs, and the like when the compound of Formula 1 (1-(3-cyano-1-isopropyl-indol-5-yl)pyrazol-4-carboxylic acid; compound of Example 1) is administered to a gout patient group.
• 1. Written informed consent (signed and dated) provided voluntarily prior to the start of the study. • 2. Male or female aged from 18 to 75 • 3. History or experience of hyperuricemia and gout in accordance with the criteria of the American College of Rheumatology. • 4. Self-reported history of 2 or more gout flare within 12 months prior to screening visit (Visit 1). • 5. Serum uric acid (sUA) levels at Visit 1 of 6.0 mg/dL or more in subjects who were receiving urate lower therapy (ULT) with allopurinol, febuxostat, probenecid, or lesinurad; and sUA levels at Visit 1 of 8.0 mg/dL or more and 12.0 mg/dL or less in subjects who had no history of receiving the ULT or were not receiving the ULT at visit 1. • 6. sUA levels of 8.0 mg/dL or more and 12.0 mg/dL or less at Visit 3. • 7. Body mass index of 42 kg/m^2 or less at screening visit (Visit 1). • 8. Estimated glomerular filtration rate (eGFR) of 60 mL/min/1.73 m^2 or more at screening visit (Visit 1). • 9. Subjects of childbearing potential with a negative pregnancy test result at screening visit (Visit 1). Subjects (female subjects of childbearing potential and male subjects with partners of childbearing potential) consented to use adequate methods of contraception to avoid pregnancy during the study period. • 10. Able to understand the study procedure and relevant risk, and willing to comply with the visit/protocol schedule.
• 1. Presence of secondary hyperuricemia caused by myeloproliferative disorder, organ transplantation, or the like. • 2. Experience of any active acute gout flare within 3 weeks prior to screening visit (Visit 1). • 3. Aspartate aminotransferase or alanine aminotransferase level exceeds 2 times upper limit of normal (ULN) at screening visit (Visit 1). • 4. Creatine kinase level exceeds 2.5 times ULN at screening visit (Visit 1). • 5. Presence of previous hypersensitivity to colchicine. • 6. Patients who have ever prescribed pegloticase within 3 months prior to screening visit (Visit 1). • 7. If a stable dose of drugs (losartan, fibrate, thiazide diuretics, loop diuretics, and acetylsalicylic acid) known to affect sUA levels has not been administered during the past 6 weeks prior to screening visit (Visit 1), acetylsalicylic acid is not allowed to use 325 mg/day or more. • 8. Patients who have ever received systemic corticosteroids for 10 or more consecutive days within 1 month prior to screening visit (Visit 1). • 9. Presence of need or potential availability of systemic immunosuppressive drugs or immunomodulatory therapies (e.g., azathioprine, 6-mercaptopurine, and cyclosporine) • 10. Patients who have received high or moderate doses of cytochrome P450 3A4 inhibitors or P-glycoprotein inhibitors within 14 days prior to screening visit (Visit 1). • 11. History of xanthinuria. • 12. History of rheumatoid arthritis. • 13. Presence of active peptic ulcer disease requiring treatment. • 14. Presence of unstable angina, New York Heart Association class III or IV heart failure, myocardial infarction, stroke, deep vein thrombosis, percutaneous coronary intervention (with or without stent), or coronary artery bypass graft within the past 12 months prior to screening visit (Visit 1); current administration of anticoagulants; or the presence of clinically significant electrocardiogram abnormalities in the investigator's opinion at screening visit (Visit 1). • 15. Presence of uncontrolled hypertension (systolic blood pressure>160 mmHg or diastolic blood pressure>95 mmHg) at screening visit (Visit 1). • 16. History of myositis/myopathy, rhabdomyolysis, Stevens-Johnson syndrome, or toxic epidermal necrolysis. • 17. […]

[1] = 200 mg/day oral, 12 weeks, listed as 1-(3-cyano-1-isopropyl-indol-5-yl)pyrazol-4-carboxylic acid
[2] = mild renal function impairment (eGFR 60-<90), 50 mg, 12 weeks
[3] = mild renal function impairment (eGFR 60-<90), 100 mg, 12 weeks
[4] = mild renal function impairment (eGFR 60-<90), 200 mg, 12 weeks
[5] = moderate renal function impairment (eGFR 30-<60), at each dose (50, 100, 200 mg), 12 weeks
[6] = normal renal function (eGFR>=90), 50 mg, 12 weeks
[7] = normal renal function (eGFR>=90), 100 mg, 12 weeks
[8] = normal renal function (eGFR>=90), 200 mg, 12 weeks

With `CC(C)n1cc(C#N)c2cc(-n3cc(C(=O)O)cn3)ccc21` [Example 1, 1-(3-cyano-1-isopropyl-indol-5-yl)pyrazol-4-carboxylic acid] the “average maximum degree of reduction in serum uric acid” value (shortened to “average maximum degree of reduction”) (50 mg) was 46.7%, the “patients with serum uric acid concentration <4 mg/dL” value (50 mg/day oral, 12 weeks) was 18% (6/34 people) and the “patients with serum uric acid concentration <6 mg/dL” value (50 mg/day oral, 12 weeks) was 59%. The “average serum uric acid concentration” value (50 mg/day) was 5.5 mg/dL, the “average maximum degree of reduction” value (100 mg) was 50.6% and the “patients with serum uric acid concentration <4 mg/dL” value (100 mg/day oral, 12 weeks) was 29% (11/38 people). For the same compound, the “patients with serum uric acid concentration <6 mg/dL” value (100 mg/day oral, 12 weeks) was 63%, the “average serum uric acid concentration” value (100 mg/day) was 4.9 mg/dL and the “average maximum degree of reduction” value (200 mg) was 66.8%. The “patients with serum uric acid concentration <4 mg/dL” value (200 mg/day oral, 12 weeks) was 54% (20/37 people), the “patients with serum uric acid concentration <6 mg/dL” value (200 mg/day oral, 12 weeks) was 78% and the “patients with serum uric acid concentration <4 mg/dL” value [1] was 54%. The “patients with serum uric acid concentration <5 mg/dL” value [1] was 62%, the average serum uric acid concentration (200 mg/day) was 3.8 mg/dL and the “serum uric acid concentration kept within the normal range during the dosing period” value (doses of 50 mg, 100 mg and 200 mg, from week 2, FIG. 2) was under 6.0 mg/dL. The “patients adjusted to serum uric acid <5.0 mg/dL” value [2] was 33%, the “patients adjusted to serum uric acid <6.0 mg/dL” value [2] was 53% and the “patients adjusted to serum uric acid <5.0 mg/dL” value [3] was 44%. For the same compound, the “patients adjusted to serum uric acid <6.0 mg/dL” value [3] was 67%, the “patients adjusted to serum uric acid <5.0 mg/dL” value [4] was 55% and the “patients adjusted to serum uric acid <6.0 mg/dL” value [4] was 77%. For the same compound, the “patients adjusted to serum uric acid <5.0 mg/dL” value [5] was at least 50%, the “patients adjusted to serum uric acid <6.0 mg/dL” value [5] was at least 50% and the “patients adjusted to serum uric acid <5.0 mg/dL” value [6] was 53%. For the same compound, the “patients adjusted to serum uric acid <6.0 mg/dL” value [6] was 59%, the “patients adjusted to serum uric acid <5.0 mg/dL” value [7] was 43% and the “patients adjusted to serum uric acid <6.0 mg/dL” value [7] was 57%. The “patients adjusted to serum uric acid <5.0 mg/dL” value [8] was 71% and the “patients adjusted to serum uric acid <6.0 mg/dL” value [8] was 79%.
